In patent US9265253B2, “Use of macrocyclic picolinamides as fungicides” (DOW AGROSCIENCES LLC, priority 2013, dated 2016):

test system: Mycosphaerella graminicola; Anamorph: Septoria tritici; test: Leaf Blotch of Wheat (SEPTTR) disease control; assay type: in vivo; details: 3 Day Curative, rate 100 ppm
Outline: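 Wheat seedlings (Yuma, first leaf emerged) sprayed to run-off with compound in acetone/water with 110 ppm Triton X-100, or track-sprayed as EC with 0.1% Trycol 5941. Septoria tritici spores inoculated before or after treatment. Dew chambers, then 20 °C greenhouse. Percent disease control derived from severity (0–100%) relative to untreated plants.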

Row | SMILES | SEPTTR 3 DC disease control
1 | COc1ccnc(C(=O)N[C@H]2CCC[C@H](Cc3ccc(C)cc3)[C@@H](OCCCC(F)(F)F)[C@H](C)OC2=O)c1O [Compound F10] | A (80-100)

same assay, conditions: Zymoseptoria tritici, 24 h, 1 Day Protectant, rate 100 ppm; read-out: SEPTTR 1 DP disease control

Row | SMILES | pest or weed control at 100 ppm [%]
2 | CCO[C@@H]1[C@@H](Cc2ccccc2)CCC[C@H](NC(=O)c2nccc(OC)c2O)C(=O)O[C@H]1C [Compound F23] | 80 to 100
3 | COc1ccnc(C(=O)N[C@H]2CCC[C@H](Cc3ccc(C)cc3)[C@@H](OCCCC(F)(F)F)[C@H](C)OC2=O)c1OCOC(C)=O [Compound F139] | 80 to 100
4 | COc1ccnc(C(=O)N[C@H]2CCC[C@H](CCC(C)C)[C@@H](Oc3ccccc3)[C@H](C)OC2=O)c1OC(C)=O [Compound F62] | 80 to 100
5 | CCOCC(=O)Oc1c(OC)ccnc1C(=O)N[C@H]1CCC[C@H](CCOC)[C@@H](Oc2ccccc2)[C@H](C)OC1=O [Compound F186] | 80 to 100
6 | COc1ccnc(C(=O)N[C@H]2CCC[C@H](CCF)[C@@H](OCC(C)C)[C@H](C)OC2=O)c1O [Compound F43] | 80 to 100
7 | CCOCC(=O)OCOc1c(OC)ccnc1C(=O)N[C@H]1CCC[C@H](CCC(C)C)[C@@H](OCC(C)C)[C@H](C)OC1=O [Compound F159] | 80 to 100
8 | COc1ccnc(C(=O)N[C@H]2CCC[C@H](CC3CCCC3)[C@@H](OCC3CC3)[C@H](C)OC2=O)c1OC(C)=O [Compound F73] | 80 to 100
9 | COc1ccnc(C(=O)N[C@H]2CCC[C@H](Cc3ccco3)[C@@H](OCC(C)C)[C@H](C)OC2=O)c1O [Compound F34] | 80 to 100
10 | COc1ccnc(C(=O)N[C@H]2CCC[C@H](Cc3ccc(C)cc3)[C@@H](OCCCC(F)(F)F)[C@H](C)OC2=O)c1O [Compound F10] | 80 to 100

same assay, conditions: Zymoseptoria tritici, 24 h, 1 Day Protectant, rate 121.5 g/H; read-out: SEPTTR 1 DP disease control

Row | SMILES | pest or weed control at 121.5 g/ha [%]
11 | COc1ccnc(C(=O)N[C@H]2CCC[C@H](Cc3ccc(C)cc3)[C@@H](OCCCC(F)(F)F)[C@H](C)OC2=O)c1OCOC(C)=O [Compound F139] | 80 to 100
12 | COc1ccnc(C(=O)N[C@H]2CCC[C@H](CCC(C)C)[C@@H](Oc3ccccc3)[C@H](C)OC2=O)c1OC(C)=O [Compound F62] | 80 to 100
13 | CCOCC(=O)OCOc1c(OC)ccnc1C(=O)N[C@H]1CCC[C@H](CCC(C)C)[C@@H](OCC(C)C)[C@H](C)OC1=O [Compound F159] | 80 to 100
14 | COc1ccnc(C(=O)N[C@H]2CCC[C@H](CC3CCCC3)[C@@H](OCC3CC3)[C@H](C)OC2=O)c1OC(C)=O [Compound F73] | 80 to 100
15 | COc1ccnc(C(=O)N[C@H]2CCC[C@H](Cc3ccc(C)cc3)[C@@H](OCCCC(F)(F)F)[C@H](C)OC2=O)c1O [Compound F10] | 80 to 100

same assay, conditions: Zymoseptoria tritici, 72 h, 3 Day Curative, rate 100 ppm; read-out: SEPTTR 3 DC disease control

Row | SMILES | pest or weed control at 100 ppm [%]
16 | CCO[C@@H]1[C@@H](Cc2ccccc2)CCC[C@H](NC(=O)c2nccc(OC)c2O)C(=O)O[C@H]1C [Compound F23] | 80 to 100
17 | COc1ccnc(C(=O)N[C@H]2CCC[C@H](Cc3ccc(C)cc3)[C@@H](OCCCC(F)(F)F)[C@H](C)OC2=O)c1OCOC(C)=O [Compound F139] | 80 to 100
18 | COc1ccnc(C(=O)N[C@H]2CCC[C@H](CCC(C)C)[C@@H](Oc3ccccc3)[C@H](C)OC2=O)c1OC(C)=O [Compound F62] | 80 to 100
19 | CCOCC(=O)Oc1c(OC)ccnc1C(=O)N[C@H]1CCC[C@H](CCOC)[C@@H](Oc2ccccc2)[C@H](C)OC1=O [Compound F186] | 80 to 100
20 | COc1ccnc(C(=O)N[C@H]2CCC[C@H](CCF)[C@@H](OCC(C)C)[C@H](C)OC2=O)c1O [Compound F43] | 80 to 100
21 | CCOCC(=O)OCOc1c(OC)ccnc1C(=O)N[C@H]1CCC[C@H](CCC(C)C)[C@@H](OCC(C)C)[C@H](C)OC1=O [Compound F159] | 80 to 100
22 | COc1ccnc(C(=O)N[C@H]2CCC[C@H](CC3CCCC3)[C@@H](OCC3CC3)[C@H](C)OC2=O)c1OC(C)=O [Compound F73] | 80 to 100
23 | COc1ccnc(C(=O)N[C@H]2CCC[C@H](Cc3ccco3)[C@@H](OCC(C)C)[C@H](C)OC2=O)c1O [Compound F34] | 80 to 100

same assay, conditions: Zymoseptoria tritici, 72 h, 3 Day Curative, rate 121.5 g/H; read-out: SEPTTR 3 DC disease control

Row | SMILES | pest or weed control at 121.5 g/ha [%]
24 | COc1ccnc(C(=O)N[C@H]2CCC[C@H](Cc3ccc(C)cc3)[C@@H](OCCCC(F)(F)F)[C@H](C)OC2=O)c1OCOC(C)=O [Compound F139] | 80 to 100
25 | COc1ccnc(C(=O)N[C@H]2CCC[C@H](CCC(C)C)[C@@H](Oc3ccccc3)[C@H](C)OC2=O)c1OC(C)=O [Compound F62] | 80 to 100
26 | CCOCC(=O)OCOc1c(OC)ccnc1C(=O)N[C@H]1CCC[C@H](CCC(C)C)[C@@H](OCC(C)C)[C@H](C)OC1=O [Compound F159] | 80 to 100
27 | COc1ccnc(C(=O)N[C@H]2CCC[C@H](CC3CCCC3)[C@@H](OCC3CC3)[C@H](C)OC2=O)c1OC(C)=O [Compound F73] | 80 to 100
28 | COc1ccnc(C(=O)N[C@H]2CCC[C@H](Cc3ccc(C)cc3)[C@@H](OCCCC(F)(F)F)[C@H](C)OC2=O)c1O [Compound F10] | 80 to 100

test system: Puccinia triticina; Synonym: Puccinia recondite f. Sp. Tritici; test: Wheat Brown Rust (PUCCRT) disease control; assay type: in vivo; details: Puccinia triticina, topical, 24 h, 1 Day Protectant, rate 100 ppm; read-out: PUCCRT 1 DP disease control
Outline: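 Brown rust on first-leaf Yuma wheat: spore inoculation before or after spray application (acetone/Triton X-100 solution, or EC with Trycol in track spray), overnight 100% RH at 22 °C, disease developed at 24 °C. Severity scored 0–100% and converted to percent control against untreated.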

Row | SMILES | pest or weed control at 100 ppm [%]
29 | CCO[C@@H]1[C@@H](Cc2ccccc2)CCC[C@H](NC(=O)c2nccc(OC)c2O)C(=O)O[C@H]1C [Compound F23] | 80 to 100
30 | COc1ccnc(C(=O)N[C@H]2CCC[C@H](Cc3ccc(C)cc3)[C@@H](OCCCC(F)(F)F)[C@H](C)OC2=O)c1OCOC(C)=O [Compound F139] | 80 to 100
31 | COc1ccnc(C(=O)N[C@H]2CCC[C@H](CCC(C)C)[C@@H](Oc3ccccc3)[C@H](C)OC2=O)c1OC(C)=O [Compound F62] | 80 to 100
32 | CCOCC(=O)Oc1c(OC)ccnc1C(=O)N[C@H]1CCC[C@H](CCOC)[C@@H](Oc2ccccc2)[C@H](C)OC1=O [Compound F186] | 80 to 100
33 | COc1ccnc(C(=O)N[C@H]2CCC[C@H](CCF)[C@@H](OCC(C)C)[C@H](C)OC2=O)c1O [Compound F43] | 80 to 100
34 | CCOCC(=O)OCOc1c(OC)ccnc1C(=O)N[C@H]1CCC[C@H](CCC(C)C)[C@@H](OCC(C)C)[C@H](C)OC1=O [Compound F159] | 80 to 100
35 | COc1ccnc(C(=O)N[C@H]2CCC[C@H](CC3CCCC3)[C@@H](OCC3CC3)[C@H](C)OC2=O)c1OC(C)=O [Compound F73] | 80 to 100
36 | COc1ccnc(C(=O)N[C@H]2CCC[C@H](Cc3ccco3)[C@@H](OCC(C)C)[C@H](C)OC2=O)c1O [Compound F34] | 80 to 100
37 | COc1ccnc(C(=O)N[C@H]2CCC[C@H](Cc3ccc(C)cc3)[C@@H](OCCCC(F)(F)F)[C@H](C)OC2=O)c1O [Compound F10] | 80 to 100

same assay, conditions: Puccinia triticina, topical, 24 h, 1 Day Protectant, rate 121.5 g/H; read-out: PUCCRT 1 DP disease control

Row | SMILES | pest or weed control at 121.5 g/ha [%]
38 | COc1ccnc(C(=O)N[C@H]2CCC[C@H](Cc3ccc(C)cc3)[C@@H](OCCCC(F)(F)F)[C@H](C)OC2=O)c1OCOC(C)=O [Compound F139] | 80 to 100
39 | COc1ccnc(C(=O)N[C@H]2CCC[C@H](CCC(C)C)[C@@H](Oc3ccccc3)[C@H](C)OC2=O)c1OC(C)=O [Compound F62] | 80 to 100
40 | CCOCC(=O)OCOc1c(OC)ccnc1C(=O)N[C@H]1CCC[C@H](CCC(C)C)[C@@H](OCC(C)C)[C@H](C)OC1=O [Compound F159] | 80 to 100
41 | COc1ccnc(C(=O)N[C@H]2CCC[C@H](CC3CCCC3)[C@@H](OCC3CC3)[C@H](C)OC2=O)c1OC(C)=O [Compound F73] | 80 to 100
42 | COc1ccnc(C(=O)N[C@H]2CCC[C@H](Cc3ccc(C)cc3)[C@@H](OCCCC(F)(F)F)[C@H](C)OC2=O)c1O [Compound F10] | 80 to 100

same assay, conditions: Puccinia triticina, topical, 72 h, 3 Day Curative, rate 100 ppm; read-out: PUCCRT 3 DC disease control

Row | SMILES | pest or weed control at 100 ppm [%]
43 | CCO[C@@H]1[C@@H](Cc2ccccc2)CCC[C@H](NC(=O)c2nccc(OC)c2O)C(=O)O[C@H]1C [Compound F23] | 80 to 100
44 | COc1ccnc(C(=O)N[C@H]2CCC[C@H](Cc3ccc(C)cc3)[C@@H](OCCCC(F)(F)F)[C@H](C)OC2=O)c1OCOC(C)=O [Compound F139] | 80 to 100
45 | COc1ccnc(C(=O)N[C@H]2CCC[C@H](CCC(C)C)[C@@H](Oc3ccccc3)[C@H](C)OC2=O)c1OC(C)=O [Compound F62] | 80 to 100
46 | CCOCC(=O)Oc1c(OC)ccnc1C(=O)N[C@H]1CCC[C@H](CCOC)[C@@H](Oc2ccccc2)[C@H](C)OC1=O [Compound F186] | 80 to 100
47 | COc1ccnc(C(=O)N[C@H]2CCC[C@H](CCF)[C@@H](OCC(C)C)[C@H](C)OC2=O)c1O [Compound F43] | 80 to 100
48 | CCOCC(=O)OCOc1c(OC)ccnc1C(=O)N[C@H]1CCC[C@H](CCC(C)C)[C@@H](OCC(C)C)[C@H](C)OC1=O [Compound F159] | 80 to 100
49 | COc1ccnc(C(=O)N[C@H]2CCC[C@H](CC3CCCC3)[C@@H](OCC3CC3)[C@H](C)OC2=O)c1OC(C)=O [Compound F73] | 80 to 100
50 | COc1ccnc(C(=O)N[C@H]2CCC[C@H](Cc3ccco3)[C@@H](OCC(C)C)[C@H](C)OC2=O)c1O [Compound F34] | 80 to 100
51 | COc1ccnc(C(=O)N[C@H]2CCC[C@H](Cc3ccc(C)cc3)[C@@H](OCCCC(F)(F)F)[C@H](C)OC2=O)c1O [Compound F10] | 80 to 100

same assay, conditions: Puccinia triticina, topical, 72 h, 3 Day Curative, rate 121.5 g/H; read-out: PUCCRT 3 DC disease control

Row | SMILES | pest or weed control at 121.5 g/ha [%]
52 | COc1ccnc(C(=O)N[C@H]2CCC[C@H](Cc3ccc(C)cc3)[C@@H](OCCCC(F)(F)F)[C@H](C)OC2=O)c1OCOC(C)=O [Compound F139] | 0 to 80
53 | COc1ccnc(C(=O)N[C@H]2CCC[C@H](CCC(C)C)[C@@H](Oc3ccccc3)[C@H](C)OC2=O)c1OC(C)=O [Compound F62] | 0 to 80
54 | CCOCC(=O)OCOc1c(OC)ccnc1C(=O)N[C@H]1CCC[C@H](CCC(C)C)[C@@H](OCC(C)C)[C@H](C)OC1=O [Compound F159] | 0 to 80
55 | COc1ccnc(C(=O)N[C@H]2CCC[C@H](CC3CCCC3)[C@@H](OCC3CC3)[C@H](C)OC2=O)c1OC(C)=O [Compound F73] | 80 to 100
56 | COc1ccnc(C(=O)N[C@H]2CCC[C@H](Cc3ccc(C)cc3)[C@@H](OCCCC(F)(F)F)[C@H](C)OC2=O)c1O [Compound F10] | 0 to 80
